Converted amounts (≈) assume the structure as drawn.
How the values were obtained:
[1] = Kinetic solubility of compound in 1-Octanol/PBS at pH 7.4 at 200 uM incubated for 2 hrs by shake flask method; assay type: physicochemical; details: read-out: Kinetic_solubility
[2] = Octanol/water partition coefficient, logP of the compound; assay type: physicochemical
Plasmodium falciparum [3] = test: Antimalarial activity against Plasmodium falciparum 3D7 assessed as reduction in parasite growth; assay type: functional, organism-based
Plasmodium falciparum [4] = test: Antimalarial activity against Plasmodium falciparum NF54 assessed as parasite growth inhibition at 2 uM relative to control; assay type: functional; details: read-out: GI

Question: For CN1CCN(CCCCNC2CC3CCC(C2)N3Cc2ccccc2)CC1 (stereo unspecified), which solubility kinetic at 2 h, 200 µM [1] is on record?
Answer: 200 µM (≈ 74.1 µg/mL)

Question: And the logP ([2]; read-out: logP)?
Answer: 3.1

Question: Which XC50 (Plasmodium falciparum [3]) does the source give for CC1CCN(Cc2cccc(C(=O)NCc3ccc(F)c(-c4ccc(CN5CCN[C@H](C)C5)cc4)c3)c2)CC1 here?
Answer: 1460 nM

Question: Which XC50 (Plasmodium falciparum [3]) does the source give for COc1c(C2CCN(CCN3CCC(CNC(=O)c4ccc(-c5ccc(C#N)cc5)cc4)CC3)CC2)ccc2c1CCCC2 here?
Answer: 445 nM

Question: Which inhibition of growth at 2 µM (Plasmodium falciparum [4]) does the source give for OC1(CCCNC2CCN(C3CC3)C(c3ccccc3)C2)CCC1 (stereo unspecified) here?
Answer: -8%

Question: With c1ccc(-c2ccnc(C3CCN(CC45CNCC4C5)CC3)n2)cc1 (stereo unspecified) as the compound, how does the solubility kinetic at 2 h, 200 µM [1] read?
Answer: 200 µM (≈ 66.9 µg/mL)

Question: And the logP ([2]; read-out: logP)?
Answer: 3.2

Question: For COc1ccc(-c2cncc(C(=O)NCC3CCN(CCN(C)C)CC3)c2)cc1, which logP ([2]; read-out: logP) is on record?
Answer: 2.8

Question: With O=C(NC1CCN(CCOc2ccc(Cl)cc2)CC1)c1c[nH]c2ccncc2c1=O as the compound, how does the logP [2] read?
Answer: 2.5

Question: With Cc1c(CN2CCC(O)(Cn3ccnc3)CC2)[nH]c2c(Cl)cccc12 as the compound, how does the logP ([2]; read-out: logP) read?
Answer: 3.6

Question: For COc1ccc(CN2CCN(c3ccncc3C)CC2)cc1Cn1cccn1, which inhibition of growth at 2 µM (Plasmodium falciparum [4]) is on record?
Answer: -15%

Question: For Cc1cnccc1N1CCCN(Cc2ccccc2OCCN2CCN(C)CC2)CC1, which logP ([2]; read-out: logP) is on record?
Answer: 3

Question: For Oc1cc(CN2CCC(O)(Cn3ccnc3)CC2)nc2c(Cl)cccc12, which XC50 (Plasmodium falciparum [3]) is on record?
Answer: 882 nM

Question: With CC1(N2CCC2)CCC(NCC2CCN(Cc3ccccc3)C2)CC1 (stereo unspecified) as the compound, how does the logP ([2]; read-out: logP) read?
Answer: 3.4

Question: What does the source list for CN1CCC(Oc2ccc(NC(=O)c3cn4ccnc4s3)cn2)CC1?
Answer: solubility kinetic at 2 h, 200 µM [1]: 200 µM (≈ 71.5 µg/mL); logP ([2]; read-out: logP): 2

Source: ChEMBL document CHEMBL5390311, “MAIP: An Open-Source Tool to Enrich High-Throughput Screening Output and Identify Novel, Druglike Molecules with Antimalarial Activity” (ACS Med Chem Lett, 2023)
